Measurements taken from patent US9248115B2, “Silibinin component for the treatment of hepatitis” (MADAUS GmbH, priority 2007, dated 2016).
Where two headings read alike, the source gives them in different places.

Key:
[1] = Example 3: plasma pharmacokinetics of free and total silibinin A and B after Legalon SIL infusion (HPLC-UV); assay type: in vivo, human; settings: for AUC(0-∞), free silibinin: 20 mg/kg iv Legalon SIL, 8 hepatitis C patients; for AUC(0-∞), free silibinin / MRT / Tmax / clearance / Vd / half-life: plasma; for MRT / Tmax / clearance / Vd / half-life: human, intravenous, 20 mg/kg; for clearance: read-out: CL, free silibinin (converted); for Vd: read-out: Vz, free silibinin; for half-life: read-out: t1/2, free silibinin (converted)
Experimental: An in vivo study was performed to characterize plasma concentration/time profiles of silibinin in 8 patients suffering from chronic hepatitis C who received 7 days i.v. infusion treatment with 20 mg silibinin/kg body weight (Legalon® SIL). For multiple doses of 20 mg/kg body weight, plasma concentration/time profiles and PK parameters of free and total silibinin had been observed on day 1 (=single dose conditions) and were compared with those on day 7 (=expected steady state conditions).
The study samples were analyzed using a validated HPLC-UV method. During the assay period the analytical procedure was validated by two calibration curves per analytical run.

[2] = tested on: hepatitis C virus; test: Protocol 1: serum HCV RNA (TaqMan PCR) in peginterferon/ribavirin nonresponders, iv silibinin for 7 days; assay type: in vivo, human; settings: monotherapy
Experimental: Patients with previous nonresponse to full dose of peginterferon/ribavirin combination therapy were selected for these studies. […] Patients were required to have a liver biopsy done within 2 years prior inclusion into this study. Standard inclusion/exclusion criteria for peginterferon/ribavirin therapy were applied. Patients first received daily 10 mg/kg silibinin (Legalon Sil®, Madaus, Köln) infused over 4 hrs for 7 consecutive days. On day 1 blood was drawn for determination of oxidative stress parameters at baseline, every 30 minutes during the infusion and 2 hours after the end of the infusion. On day 8 treatment was changed to 140 mg silymarin (Legalon®, Madaus, Köln) TID per os in combination with 180 μ[…]®; Roche, Basel) and 1-1.2 g/d ribavirin (COPEGUS®; Roche, Basel). In both protocols in case of intolerance to PEG-IFN alfa2a or ribavirin, standard dose adjustment guidelines were used. Antiviral combination therapy was given for a total of 24 weeks (with the Option to stop treatment in patients without a >2 log drop at week 12); virologic responders at week 24 were offered to continue treatment for further 48 weeks. After end of the infusion period patients were tested after weeks 2, 4, and then monthly till the end of therapy at week 24. Serum HCV RNA level was determined by the TaqMan PCR assay (Cobas […] TaqMan HCV Test; limit of detection, 15 IU/mL, Roche Diagnostics).

[3] = Serum ALT during iv silibinin monotherapy (Protocol 1); assay type: in vivo, human; settings: 10 mg/kg/day iv for 7 days; decreased from 162±133; p=0.004
Experimental: Patients first received daily 10 mg/kg silibinin (Legalon Sil®, Madaus, Köln) infused over 4 hrs for 7 consecutive days. On day 1 blood was drawn for determination of oxidative stress parameters at baseline, every 30 minutes during the infusion and 2 hours after the end of the infusion. On day 8 treatment was changed to 140 mg silymarin (Legalon®, Madaus, Köln) TID per os in combination with 180 μ[…]®; Roche, Basel) and 1-1.2 g/d ribavirin (COPEGUS®; Roche, Basel).

[4] = tested on: hepatitis C virus; test: Example 2: iv silibinin co-treatment during ongoing peginterferon/ribavirin, HCV-RNA; assay type: in vivo, human
Experimental: Patients were continuously treated with 180 μg peginterferon alfa 2a and weight based ribavirin. In spite of this treatment, five patients were HCV-RNA positive after 24 weeks of therapy: Three male patients and two female patients; four patients with HCV genotype 1 and one patient with HCV genotype 3a; three patients with cirrhosis. Four patients can be regarded as naïve, whereas one patient can be regarded as […] respect to two previous therapies (24 and 48 weeks). In the course of the ongoing treatment with 180 μg peginterferon alfa 2a and weight based ribavirin, all patients were treated at least once for 14 consecutive days with 20 mg/kg/d silibinin iv. During this period, combination therapy with peginterferon/ribavirin was continued.

[5] = biological target: T1, HCV NS5BΔ21 polymerase genotype J4 (1b) (Hepatitis C virus genotype 1b, UniProt O92972); test: Cell-free enzyme assay for HCV RdRp activity; assay type: biochemical
T1 construct: HCV NS5BΔ21 polymerase genotype J4 (1b)
T1 sequence (O92972 2420-2989, stated change not applied): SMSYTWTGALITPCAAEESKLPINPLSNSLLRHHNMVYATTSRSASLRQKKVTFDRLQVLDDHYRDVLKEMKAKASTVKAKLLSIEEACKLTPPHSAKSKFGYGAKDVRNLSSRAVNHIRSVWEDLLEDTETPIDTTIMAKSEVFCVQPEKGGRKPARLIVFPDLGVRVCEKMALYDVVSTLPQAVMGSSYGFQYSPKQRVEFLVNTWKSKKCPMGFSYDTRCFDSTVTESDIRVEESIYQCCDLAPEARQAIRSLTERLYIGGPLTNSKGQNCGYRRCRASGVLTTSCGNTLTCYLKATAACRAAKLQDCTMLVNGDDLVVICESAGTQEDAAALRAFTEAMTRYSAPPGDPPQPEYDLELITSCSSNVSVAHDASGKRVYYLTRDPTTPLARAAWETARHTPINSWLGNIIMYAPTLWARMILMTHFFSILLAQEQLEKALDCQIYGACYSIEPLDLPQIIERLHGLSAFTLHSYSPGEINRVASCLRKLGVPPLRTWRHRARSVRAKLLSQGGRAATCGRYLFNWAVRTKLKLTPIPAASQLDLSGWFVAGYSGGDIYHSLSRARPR
Experimental: NS5B RNA-dependent RNA polymerase (RdRp) is an essential enzyme fir viral replication (cf. S. B. Hwang et al., Virology 1997, 227, 439-46). The following pure compounds were tested in a cell-free enzyme assay for the detection of HCV RdRp activity: silibinin A, silibinin B, isosilibinin A, isosilibinin B, silichristin, silidianin, and the silibinin ester silibinin-C-2″,3-bis(hydrogensuccinate) disodium (active ingredient of Legalon® SIL).
Stock solutions (100 mM) of the compounds in 100% DMSO were prepared. The concentration of DMSO in all reactions was kept constant at 5%. Target enzyme for the study was HCV NS5BΔ21 polymerase genotype J4 (1b).
The IC50 value of the silibinin ester was determined from the dose-response curve of two measurements. […] Curves were fitted to data points and IC50 values were interpolated from the resulting curves using SigmaPlot 8.0 software.

[6] = tested on: mouse cell line L929; assay type: cell-based
Experimental: An in vitro study was performed to assess the cytotoxic potential of silymarin, silibinin, silibinin bis(hydrogensuccinate) disodium salt, and succinic acid by means of the XTT test using the mouse cell line L929 (cf. D. A. Scudiero et al., Cancer Res. 48, 4827-33; O, S. Weislow et al., J. Natl. Cancer Inst., 81, 577-86; N. W. Roehm et al., J. Immunol. Methods, 142). The following concentrations of the test items were tested: 9.77, 19.53, 39.06, 78.13, 156.25, 312.5, 625, 1250 μg/mL. Complete medium (RPMI 1640 containing 10% (v/v) FCS) was used as negative control. The solvent control for the test item was RPMI 1640 medium containing 10% (v/v) FCS) and 1% DMSO. The solvent control for the positive control was also RPMI 1640 medium containing 10% (v/v) FCS and 10.0% (v/v) deionized water. SDS was used as positive control. The following concentrations were applied: 3.125, 6.25, 12.5, 25, 50, 100, 125, 250 μg/mL. The incubation time was 24 hours at 37±1.5° C.

Row | Compound | AUC(0-tz), free silibinin ([1]; day 1) [ng·h/mL] | Cmax, free silibinin ([1]; day 1) [ng/mL] | HVD, free silibinin ([1]; day 1) [h] | AUC(0-∞), free silibinin ([1]; day 1) [ng·h/mL] | % PTF, free silibinin ([1]; day 7) [%] | AUCss, free silibinin ([1]; day 7) [ng·h/mL] | Cav, free silibinin ([1]; day 7) [ng/mL] | Cmax, free silibinin ([1]; day 7) [ng/mL] | HVD, free silibinin ([1]; day 7) [h] | MRT ([1]; day 1) [h] | Tmax ([1]; day 1) [h] | clearance ([1]; day 1) [mL/min/kg] | Vd ([1]; day 1) [L/kg] | half-life ([1]; day 1) [h] | MRT ([1]; day 7) [h] | clearance ([1]; day 7) [mL/min/kg] | Vd ([1]; day 7) [L/kg] | half-life ([1]; day 7) [h] | other results
1 | COc1cc([C@H]2Oc3cc([C@H]4Oc5cc(O)cc(O)c5C(=O)[C@@H]4O)ccc3O[C@@H]2CO)ccc1O [Silibinin A] | 3302 ± 1551 | 316 ± 108 | 10.12 ± 4.29 | 3614 ± 1648 | 164.00 ± 45.33 | 4095 ± 1942 | 171 ± 81 | 315 ± 119 | 11.87 ± 2.64 | 8.49 ± 2.64 | 3.73 ± 1.22 | 117 | 51.4 ± 12.7 | 4.58 ± 1.35 | 9.88 ± 1.86 | 98.3 | 55.3 ± 18.5 | 6.85 ± 1.29 | –
2 | COc1cc([C@@H]2Oc3cc([C@H]4Oc5cc(O)cc(O)c5C(=O)[C@@H]4O)ccc3O[C@H]2CO)ccc1O [Silibinin B] | 559 ± 339 | 90 ± 44 | 6.09 ± 2.14 | 753 ± 397 | 305.24 ± 80.46 | 1041 ± 627 | 43 ± 26 | 120 ± 54 | 7.17 ± 1.63 | 8.81 ± 6.12 | 4.03 ± 0.04 | 747 | 286 ± 164 | 5.16 ± 4.96 | 6.27 ± 2.39 | 447 | 140 ± 49 | 4.35 ± 1.66 | –
3 | COc1cc(C2Oc3cc(C4Oc5cc(O)cc(O)c5C(=O)C4OC(=O)CCC(=O)O)ccc3OC2COC(=O)CCC(=O)O)ccc1O (stereo not drawn) [silibinin C-2′,3-bis(hydrogensuccinate)] | – | – | – | – | – | – | – | – | – | – | – | – | – | – | – | – | – | – | mean log decline of HCV RNA within one week ([2]; 10 mg/kg/day iv for 7 days): 1.32±0.55 log; Serum HCV RNA at day 8 (mean±SD) ([2]; 10 mg/kg/day iv over 4 h for 7 days, baseline 6.59±0.53, 16 nonresponders, p<0.001): 5.26±0.81 log IU/ml; ALT after iv monotherapy [3]: 118±107 U/1; viral load after second co-treatment, FIG. 7 patient ([4]; 20 mg/kg/day iv 14 days, permanently depressed): below the detection limit; viral load rebound after the first administration interval, FIG. 7 patient ([4]; person): about 2 IU/mL; viral load after co-treatment, FIG. 8 patient ([4]; person, 20 mg/kg/day iv 14 days after 30 weeks, from about log 4 IU/mL, permanent): below the detection limit; viral load after co-treatment, FIG. 9 patient ([4]; person, 20 mg/kg/day iv 14 days after 72 weeks): far below the detection limit; viral load after first co-treatment, FIG. 7 patient ([4]; person, 20 mg/kg/day iv 14 days from week 24, from about log 4.5 IU/mL): below the detection limit; IC50 [5]: 47 ± 14 µM; NS5B inhibition compared with six purified constituents of silymarin ([5]; FIG. 11 vs FIG. 12): most efficient
4 | silymarin | – | – | – | – | – | – | – | – | – | – | – | – | – | – | – | – | – | – | calculated XTT50 value [6]: 35.2 µg/mL; cytotoxic potential higher than that of silibinin [6]: ~100%
